The results in this text go back to US8044198B2, “Sirtuin modulating compounds” (Sirtris Pharmaceuticals, Inc., priority 2005, dated 2011).

The target in the assay is T1, SIRT1 (Homo sapiens, UniProt Q96EB6).
T1 sequence (Q96EB6 1-747): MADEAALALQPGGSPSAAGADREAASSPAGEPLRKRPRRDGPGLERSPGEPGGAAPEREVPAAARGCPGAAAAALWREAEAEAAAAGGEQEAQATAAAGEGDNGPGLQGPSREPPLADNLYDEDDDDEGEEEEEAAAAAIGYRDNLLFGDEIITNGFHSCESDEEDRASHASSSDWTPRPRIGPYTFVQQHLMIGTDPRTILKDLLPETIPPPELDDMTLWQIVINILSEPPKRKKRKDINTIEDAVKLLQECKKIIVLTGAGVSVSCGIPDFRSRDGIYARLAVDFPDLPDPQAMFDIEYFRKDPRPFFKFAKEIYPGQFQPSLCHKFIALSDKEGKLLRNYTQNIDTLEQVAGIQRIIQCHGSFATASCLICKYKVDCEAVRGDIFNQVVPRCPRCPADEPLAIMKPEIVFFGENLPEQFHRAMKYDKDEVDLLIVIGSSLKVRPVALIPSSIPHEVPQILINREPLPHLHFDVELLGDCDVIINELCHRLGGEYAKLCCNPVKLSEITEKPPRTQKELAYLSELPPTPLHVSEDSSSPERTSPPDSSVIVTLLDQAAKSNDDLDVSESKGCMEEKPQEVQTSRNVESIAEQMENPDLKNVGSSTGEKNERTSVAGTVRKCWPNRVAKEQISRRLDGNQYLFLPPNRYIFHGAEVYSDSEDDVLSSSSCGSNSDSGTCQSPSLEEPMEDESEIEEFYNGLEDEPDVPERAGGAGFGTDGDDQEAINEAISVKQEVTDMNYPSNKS
Put plainly: SIRT1 mass spectrometry (MS) based deacetylation assay. For FOLD ACT. MS: test concentration or dose not given here. In kind it is biochemical. Particulars: Sirt1 activators; for FOLD ACT. MS: fold activation as determined by MS; for EC50: mass spectrometry assay, read-out: ED50 MS ASSAY.

On to `COc1cc(C(=O)Nc2ccccc2-c2nc3ccccc3[nH]2)ccc1CN1CCNCC1` [Compound 558], for which the “FOLD ACT. MS” value is recorded as “A (A (Fold activation >250%))” and the EC50 was under 5 µM. The like results for `COc1ccc(C(=O)Nc2ccc(-c3nc4ccncc4o3)s2)c(OC)c1` [Compound 561] were, in that order, “B (B (Fold Activation <250%))” and under 5 µM. Take `COc1cc(OC)cc(C(=O)Nc2ccc(-c3nc4ccncc4o3)s2)c1` [Compound 562]: the “FOLD ACT. MS” value is reported as “B (B (Fold Activation <250%))” and the EC50 is under 5 µM. The like results for `COc1cc(C(=O)Nc2ccc(-c3nc4ccncc4o3)s2)cc(OC)c1OC` [Compound 563] were, in that order, “B (B (Fold Activation <250%))” and 5 to 50 µM. Regarding `CS(=O)(=O)Nc1cccc(C(=O)Nc2cc(-c3nc4ncccc4o3)ccn2)c1` [Compound 566], the “FOLD ACT. MS” value is on record as “B (B (Fold Activation <250%))” and the EC50 is 5 to 50 µM. The like results for `COc1cc(C(=O)Nc2cc(-c3nc4ncccc4o3)ccn2)ccc1CN1CCCCC1` [Compound 571] were, in that order, “B (B (Fold Activation <250%))” and 5 to 50 µM. The like results for `COc1cc(C(=O)Nc2cc(-c3nc4ncccc4o3)ccn2)ccc1CN1CCCC1` [Compound 572] were, in that order, “B (B (Fold Activation <250%))” and 51 to 100 µM. The like results for `CCn1ccc(C(=O)Nc2ccccc2-c2nc3ncccc3o2)n1` [Compound 581] were, in that order, “B (B (Fold Activation <250%))” and 5 to 50 µM.

With `COc1cc(C(=O)Nc2ccccc2-c2nc3ncccc3o2)ccc1CN1CCCCC1` [Compound 585], the “FOLD ACT. MS” value is on record as “B (B (Fold Activation <250%))” and the EC50 was in the range of 5 to 50 µM. As for `COc1cc(C(=O)Nc2ccccc2-c2nc3ccccc3[nH]2)ccc1CN1CCCC1` [Compound 587], the “FOLD ACT. MS” value is given as “B (B (Fold Activation <250%))” and the EC50 was under 5 µM. Turning to `COc1cc(C(=O)Nc2ccccc2-c2nc3cc(CN4CCNCC4)cnc3s2)cc(OC)c1OC` [Compound 588], the “FOLD ACT. MS” value was “A (A (Fold activation >250%))” and the EC50 is 5 to 50 µM.

For `COc1cc(OC)cc(C(=O)Nc2ccccc2-c2nc3cc(CN4CCNCC4)cnc3s2)c1` [Compound 589], the “FOLD ACT. MS” value is reported as “A (A (Fold activation >250%))” and the EC50 was under 5 µM.

Consider `O=C(Nc1ccccc1-c1nc2cc(CN3CCNCC3)cnc2s1)c1ccc2c(c1)OCO2` [Compound 590], for which the “FOLD ACT. MS” value is recorded as “B (B (Fold Activation <250%))” and the EC50 lay in the range of 5 to 50 µM. The like results for `Cc1ccc(C(=O)Nc2ccccc2-c2nc3cc(CN4CCNCC4)cnc3s2)cc1C` [Compound 591] were, in that order, “A (A (Fold activation >250%))” and under 5 µM. In the case of `N#Cc1cccc(C(=O)Nc2ccccc2-c2nc3cc(CN4CCNCC4)cnc3s2)c1` [Compound 592], the “FOLD ACT. MS” value is reported as “B (B (Fold Activation <250%))” and the EC50 was under 5 µM.

`CN(C)c1cccc(C(=O)Nc2ccccc2-c2nc3cc(CN4CCNCC4)cnc3s2)c1` [Compound 593]: the “FOLD ACT. MS” value is on record as “A (A (Fold activation >250%))” and the EC50 was under 5 µM. Regarding `O=C(Nc1ccccc1-c1nc2cc(CN3CCNCC3)cnc2s1)c1ccc(F)c(F)c1` [Compound 594], the “FOLD ACT. MS” value is listed as “B (B (Fold Activation <250%))” and the EC50 lay in the range of 5 to 50 µM. On to `O=C(Nc1ccccc1-c1nc2ccncc2s1)c1cc(C(F)(F)F)ccc1C(F)(F)F` [Compound 596], for which the EC50 is under 5 µM. On the same count and under the same terms, with `COc1ccc(OC(=O)Nc2ccccc2-c2nc3ccncc3s2)cc1` [Compound 597] the figure was under 5 µM; with `COc1ccc(NC(=S)Nc2cccc(-c3nc4ccncc4s3)c2)c(OC)c1` [Compound 599], under 5 µM; with `COc1ccc(NC(=S)Nc2cccc(-c3nc4ccncc4s3)c2)cc1OC` [Compound 600], over 150 µM. Regarding `O=C(Nc1ccccc1-c1cn2c(CN3CCOCC3)csc2n1)c1cnc2ccccc2n1` [Compound 617], the “FOLD ACT. MS” value is listed as “A (A (Fold activation >250%))” and the EC50 was under 5 µM. The like results for `O=C(Nc1ccccc1-c1cn2c(CN3CCCCC3)csc2n1)c1cnc2ccccc2n1` [Compound 618] were, in that order, “B (B (Fold Activation <250%))” and under 5 µM. `O=C(Nc1ccccc1-c1cn2c(CN3CCCC3)csc2n1)c1cnc2ccccc2n1` [Compound 619]: the “FOLD ACT. MS” value was “B (B (Fold Activation <250%))” and the EC50 was under 5 µM. In the case of `COc1cc(C(=O)Nc2ccccc2-c2cn3c(CN4CCCC4)csc3n2)cc(OC)c1OC` [Compound 620], the “FOLD ACT. MS” value was “B (B (Fold Activation <250%))” and the EC50 was under 5 µM.

For the compound `O=C(Nc1ncccc1-c1cn2c(CN3CCOCC3)csc2n1)c1cnc2ccccc2n1` [Compound 621], the “FOLD ACT. MS” value is given as “A (A (Fold activation >250%))” and the EC50 was under 5 µM.

As for `O=C(Nc1ccccc1-c1nc2cc(CN3CCNCC3)cnc2s1)c1cnc2ccccc2n1` [Compound 622], the “FOLD ACT. MS” value is “A (A (Fold activation >250%))” and the EC50 is under 5 µM. The like results for `O=C(Nc1ccccc1-c1cn2c(CN3CCNCC3)csc2n1)c1cc2ccccc2o1` [Compound 624] were, in that order, “A (A (Fold activation >250%))” and under 5 µM.

In the case of `O=C(Nc1ccccc1-c1cn2c(CN3CCNCC3)csc2n1)c1cc(-c2ccccc2)ncn1` [Compound 625], the “FOLD ACT. MS” value was “A (A (Fold activation >250%))” and the EC50 was under 5 µM. `O=C(Nc1ccccc1-c1cn2c(CN3CCN(Cc4ccccc4)CC3=O)csc2n1)c1cnc2ccccc2n1` [Compound 628]: the “FOLD ACT. MS” value is “B (B (Fold Activation <250%))” and the EC50 is under 5 µM.

`COc1cc(C(=O)Nc2ccccc2-c2nc3ncccc3o2)ccc1CN1CCCC1` [Compound 629]: the “FOLD ACT. MS” value is reported as “A (A (Fold activation >250%))” and the EC50 was in the range of 5 to 50 µM. Regarding `COc1cc(C(=O)Nc2ccccc2-c2nc3ncccc3o2)ccc1CN(C)C` [Compound 630], the “FOLD ACT. MS” value is recorded as “A (A (Fold activation >250%))” and the EC50 lay in the range of 5 to 50 µM. The like results for `COc1cc(C(=O)Nc2ccccc2-c2nc3ncccc3o2)ccc1CN1CCOCC1` [Compound 631] were, in that order, “B (B (Fold Activation <250%))” and under 5 µM. Consider `COc1cc(C(=O)Nc2ccccc2-c2nc3ncccc3o2)ccc1CN1CCN(C)CC1` [Compound 632], for which the “FOLD ACT. MS” value was “A (A (Fold activation >250%))” and the EC50 was 5 to 50 µM.

On to `N=C(Nc1ccc(Cl)cc1)Nc1cc(-c2nc3ncccc3o2)ccn1` [Compound 634], for which the “FOLD ACT. MS” value was “B (B (Fold Activation <250%))” and the EC50 is over 150 µM. `COc1cc(NC(=N)Nc2cc(-c3nc4ncccc4o3)ccn2)cc(OC)c1OC` [Compound 635]: the “FOLD ACT. MS” value is recorded as “A (A (Fold activation >250%))” and the EC50 is over 150 µM. The like results for `COc1cc(C(=O)Nc2cc(-c3nc4ncccc4o3)ccn2)ccc1CN1CCN(C)CC1` [Compound 637] were, in that order, “B (B (Fold Activation <250%))” and over 150 µM.

As to `COc1cc(C(=O)Nc2cc(-c3nc4ncccc4o3)ccn2)ccc1CN1CCNCC1` [Compound 638], the “FOLD ACT. MS” value is listed as “B (B (Fold Activation <250%))” and the EC50 is over 150 µM.

Take `CCn1ccc(C(=O)Nc2cc(-c3nc4ncccc4o3)ccn2)n1` [Compound 641]: the “FOLD ACT. MS” value was “B (B (Fold Activation <250%))” and the EC50 is over 150 µM. The like results for `COc1cc(C(=O)Nc2cc(-c3nc4ncccc4o3)ccn2)ccc1CN1CCOCC1` [Compound 642] were, in that order, “B (B (Fold Activation <250%))” and over 150 µM. The like results for `COc1cc(C(=O)Nc2cc(-c3nc4ncccc4o3)ccn2)ccc1CN1CCN(Cc2ccccc2)CC1` [Compound 643] were, in that order, “B (B (Fold Activation <250%))” and 5 to 50 µM. The like results for `Cc1cnc(C(=O)Nc2ccccc2-c2cn3c(CN4CCNCC4)csc3n2)cn1` [Compound 644] were, in that order, “A (A (Fold activation >250%))” and 5 to 50 µM. `O=C(Nc1ccccc1-c1cn2c(CN3CCNCC3)csc2n1)c1cnc2ccccc2c1` [Compound 645]: the “FOLD ACT. MS” value is given as “A (A (Fold activation >250%))” and the EC50 was under 5 µM. The like results for `O=C(Nc1ccccc1-c1nc2cc(CN3CCNCC3)cnc2s1)c1ccc2ccccc2n1` [Compound 646] were, in that order, “A (A (Fold activation >250%))” and 5 to 50 µM. As for `CN(C)CCOCc1csc2nc(-c3ccccc3NC(=O)c3cnc4ccccc4n3)cn12` [Compound 647], the “FOLD ACT. MS” value is given as “A (A (Fold activation >250%))” and the EC50 was under 5 µM. Take `O=C(Nc1ccccc1-c1cn2c(CO)csc2n1)c1cnc2ccccc2n1` [Compound 648]: the “FOLD ACT. MS” value was “B (B (Fold Activation <250%))” and the EC50 is under 5 µM.
